Source: article PMC10165945 (Journal of medicinal chemistry, 2013)
“Also recorded” adds a separate entry of the source.

What was measured:
[1] = target: T1, recombinant human IDE (Homo sapiens, UniProt P14735); experiment: IDE activity assay, degradation of fluorogenic peptide substrate FRET1; type: biochemical; details: for activity against IDE in words: FRET1 assay; for Ki: n = 3
[2] = system: neprilysin (NEP), endothelin-converting enzyme-1 (ECE1), ACE, and MMP-2 and -7; experiment: Zinc-metalloprotease selectivity panel versus IDE, common substrate OmniMMP; type: biochemical
[3] = target: T1, recombinant human IDE; details: cited from earlier work
[4] = target: T1, recombinant human IDE; details: cited from earlier work; remark: listed apart in the source
[5] = target: T1, recombinant human IDE; details: cited from earlier work; remark: listed apart in the source
[6] = target: T2, MMP7 (Homo sapiens, UniProt P09237); experiment: Zinc-metalloprotease selectivity dose-response, common substrate OmniMMP: MMP7; type: biochemical; details: Figure 3 dose-response curves
T2 sequence (P09237 95-267): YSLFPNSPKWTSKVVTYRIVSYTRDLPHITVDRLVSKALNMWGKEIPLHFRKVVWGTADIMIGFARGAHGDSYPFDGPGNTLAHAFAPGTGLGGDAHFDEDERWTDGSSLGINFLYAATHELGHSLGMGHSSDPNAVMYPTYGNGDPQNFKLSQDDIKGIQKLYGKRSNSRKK

[7] = target: T1, recombinant human IDE; experiment: IDE activity assay, insulin degradation; type: biochemical
[8] = target: T1, recombinant human IDE; experiment: IDE activity assay, Aß degradation; type: biochemical

T1 sequence (P14735 whole entry): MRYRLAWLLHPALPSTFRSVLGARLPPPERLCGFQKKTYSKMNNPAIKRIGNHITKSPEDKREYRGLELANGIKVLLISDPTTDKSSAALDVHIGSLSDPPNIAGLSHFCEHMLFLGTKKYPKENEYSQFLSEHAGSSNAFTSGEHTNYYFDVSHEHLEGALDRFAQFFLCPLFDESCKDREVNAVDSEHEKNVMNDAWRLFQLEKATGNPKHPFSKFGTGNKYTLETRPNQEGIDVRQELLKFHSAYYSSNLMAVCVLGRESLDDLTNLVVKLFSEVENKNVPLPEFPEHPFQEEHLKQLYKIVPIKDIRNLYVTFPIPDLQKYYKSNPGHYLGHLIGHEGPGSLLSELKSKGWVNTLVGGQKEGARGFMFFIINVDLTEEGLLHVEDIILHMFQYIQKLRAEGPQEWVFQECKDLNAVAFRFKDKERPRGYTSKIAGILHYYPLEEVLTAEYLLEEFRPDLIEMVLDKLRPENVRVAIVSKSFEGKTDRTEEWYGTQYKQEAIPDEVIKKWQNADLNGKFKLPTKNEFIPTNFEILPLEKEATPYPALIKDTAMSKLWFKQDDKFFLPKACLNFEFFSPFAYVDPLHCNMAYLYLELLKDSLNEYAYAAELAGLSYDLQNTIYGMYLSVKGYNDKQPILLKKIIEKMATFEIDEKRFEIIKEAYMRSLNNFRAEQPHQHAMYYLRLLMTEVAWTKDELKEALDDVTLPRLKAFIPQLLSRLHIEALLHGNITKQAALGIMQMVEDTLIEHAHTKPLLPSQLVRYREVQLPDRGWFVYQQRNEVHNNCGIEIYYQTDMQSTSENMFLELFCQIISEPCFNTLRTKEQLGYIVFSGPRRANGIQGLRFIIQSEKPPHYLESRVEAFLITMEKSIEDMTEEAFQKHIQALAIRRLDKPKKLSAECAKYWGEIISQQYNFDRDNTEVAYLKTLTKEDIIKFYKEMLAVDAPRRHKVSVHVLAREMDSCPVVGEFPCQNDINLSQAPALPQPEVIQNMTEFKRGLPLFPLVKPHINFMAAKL

## N=C(N)NCCC[C@H](NC(=O)C(CC(=O)NO)Cc1ccc2ccccc2c1)C(N)=O (stereo in doubt) [inhibitor 9b, (R)-N^1-((S)-1-amino-5-guanidino-1-oxopentan-2-yl)-N^4-hydroxy-2-(naphthalen-2-ylmethyl)succinamide]
[1]
  activity against IDE in words: inactive

## C=CCOC(=O)[C@H](CCCNC(=N)N)NC(=O)C(CC(=O)NO)Cc1ccc2ccccc2c1 (stereo in doubt) [inhibitor 14a, (S)-Allyl5-guanidino-2-((S)-4-(hydroxyamino)-2-(naphthalen-2-ylmethyl)-4-oxobutanamido)pentanoate]
[1]; ki, FRET1
  fold more potent than the parent amide, 9a: ~ 13 fold
[2]; OmniMMP substrate
  fold more potent against IDE vis-à-vis the other proteases tested: > 100 fold

## Nc1ncnc2c1ncn2[C@@H]1O[C@H](COP(=O)(O)OP(=O)(O)OP(=O)(O)O)[C@@H](O)[C@H]1O [ATP]
[3]
  effect on degradation of FRET1 by IDE: profoundly activates
[4]
  effect on degradation of Aß by IDE: inhibits
[5]
  effect on degradation of insulin by IDE: inhibits

## N=C(N)NCCC[C@H](NC(=O)[C@@H](CC(=O)NO)Cc1ccc2ccccc2c1)C(=O)N[C@@H](Cc1c[nH]c2ccccc12)C(=O)N[C@@H](CCC(=O)O)C(N)=O [inhibitor 1a]
[6]
  MMP7 inhibition in words: rather potently inhibited

## N=C(N)NCCC[C@@H](NC(=O)[C@@H](Cc1c[nH]c2ccccc12)NC(=O)[C@H](N)CCC(=O)O)C(=O)N[C@@H](CC(=O)NO)Cc1ccc2ccccc2c1 [inhibitor 15, Glu-Trp-Arg-2Nap-Hx]
[7]; derived from Table 5
  fold higher ki^app for insulin degradation relative to FRET1: > 60 fold

## CC(=O)N[C@H](CCC(=O)NCCNc1cccc2c(S(=O)(=O)O)cccc12)C(=O)N[C@H](Cc1ccc(O)cc1)C(=O)N[C@H](Cc1ccc(C(=O)c2ccccc2)cc1)C(=O)N[C@@H](CC(=O)NO)Cc1ccc2ccccc2c1 [inhibitor 17, Ac-Glu(EDANS)-Tyr-Bpa-2Nap-Hx]
[8]; derived from Table 5
  fold lower ki^app for Aß degradation relative to insulin degradation: ~ 300 fold
  fold lower ki^app for Aß degradation relative to ki for FRET1 degradation: > 30 fold

## (2R,3S)-N^1-((S)-1-Amino-5-guanidino-1-oxopentan-2-yl)-N^4,3-dihydroxy-2-(naphthalen-2-ylmethyl)succinamide [inhibitor 12a]
[1]
  activity against IDE in words: abolish activity; also recorded: substantial decreases in potency

## (2S,3R)-N^1-((S)-1-amino-5-guanidino-1-oxopentan-2-yl)-N^4,3-dihydroxy-2-(naphthalen-2-ylmethyl)succinamide [inhibitor 12b]
[1]
  activity against IDE in words: abolish activity; also recorded: substantial decreases in potency

## (S)-5-Amino-4-((S)-2-((S)-5-guanidino-2-((2S,3R)-3-hydroxy-4-(hydroxyamino)-2-(naphthalen-2-ylmethyl)-4-oxobutanamido)pentanamido)-3-(1H-indol-2-yl)propanamido)-5-oxopentanoic acid [inhibitor 8b]
[1]; read-out: ki (nM) (FRET1), Table 1, FRET1 5 μM, 22 °C
  Ki: 103 ± 6.9 nM
[1]; read-out: ki, nM (FRET1), Table 2, truncation, FRET1 5 μM
  Ki: 103 ± 7 nM
[1]; read-out: ki^app, nM FRET1, Table 5, substrate FRET1 5 μM
  Ki: 103 ± 7 nM
[8]; read-out: ki^app, nM FAßB, Table 5, substrate Aß 200 nM, n = 3
  Ki: 927 ± 120 nM
[7]; read-out: ki^app, nM Insulin, Table 5, substrate insulin 2 nM, n = 3
  Ki: 1890 ± 410 nM
[2]; concentrations up to 10 μM
  inhibition of the other proteases tested, in words: no or only partial inhibition
